Test results as given in patent US7772241B2, “Variolin derivatives and their use as antitumor agents” (Pharma Mar S.A., priority 2001, dated 2010).

Legend:
LoVo-Dox = assay: Inhibition of cells growth by colorimetric (SRB) assay, LoVo-Dox; details: for GI50 / CC50: Homo sapiens, 48 h; for GI50: read-out: GI50 LOVO-DOX, SRB assay, 48 hours exposure; for CC50: read-out: LC50 LOVO-DOX, SRB assay, 48 hours exposure; for TGI LOVO-DOX: SRB assay, 48 hours exposure
From the text: (§1) The finality of these assays is to interrupt the growth of a “in vitro” tumor cell culture by means a continued exhibition of the cells to the sample to be testing.
(§2) This form of the assay employs 96 well cell culture microplates of 9 mm diameter (Faircloth, 1988; Mosmann, 1983). Most of the cell lines are obtained from American Type Culture Collection (ATCC) derived from different human cancer types.
(§3) Cells are maintained in RPMI 1640 10% FBS, supplemented with 0.1 g/l penicillin and 0.1 g/l streptomycin sulphate and then incubated at 37° C., 5% CO2 and 98% humidity. For the experiments, cells were harvested from subconfluent cultures using trypsin and resuspended in fresh medium before plating.
(§4) Cells are seeded in 96 well microtiter plates, at 5×10^3 cells per well in aliquots of 195 μl medium, and they are allowed to attach to the plate surface by growing in drug free medium for 18 hours. Afterward, samples are added in aliquots of 5 μl in a ranging from 10 to 10^−8 μg/ml, dissolved in DMSO/EtOH/PBS (0.5:0.5:99). After 48 hours exposure, the antitumor effect are measured by the SRB methodology: cells are fixed by adding 50 μl of cold 50% (wt/vol) trichloroacetic acid (TCA) and incubating for 60 minutes at 4° C. Plates are washed with deionized water and dried. One hundred μl of SRB solution (0.4% wt/vol in 1% acetic acid) is added to each microtiter well and incubated for 10 minutes at room temperature. Unbound SRB is removed by washing with 1% acetic acid. Plates are air dried and bound stain is solubilized with Tris buffer. Optical densities are read on a automated spectrophotometric plate reader at a single wavelength of 490 nm.
(§5) The values for mean +/−SD of data from triplicate wells are calculated. Some parameters for cellular responses can be calculated: GI=growth inhibition, TGI=total growth inhibition (cytostatic effect) and LC=cell killing (cytotoxic effect).

A-549 = assay: Inhibition of cells growth by colorimetric (SRB) assay, A-549; details: for GI50 / CC50: Homo sapiens, A549, 48 h; for GI50: read-out: GI50 A-549, SRB assay, 48 hours exposure; for CC50: read-out: LC50 A-549, SRB assay, 48 hours exposure; for TGI A-549: SRB assay, 48 hours exposure
From the text: as §1, §2, §3, §4, §5

HT-29 = assay: Inhibition of cells growth by colorimetric (SRB) assay, HT-29; details: for GI50 / CC50: Homo sapiens, HT-29, 48 h; for GI50: read-out: GI50 HT-29, SRB assay, 48 hours exposure; for CC50: read-out: LC50 HT-29, SRB assay, 48 hours exposure; for TGI HT-29: SRB assay, 48 hours exposure
From the text: as §1, §2, §3, §4, §5

DU-145 = assay: Inhibition of cells growth by colorimetric (SRB) assay, DU-145; details: for GI50 / CC50: Homo sapiens, DU-145, 48 h; for GI50: read-out: GI50 DU-145, SRB assay, 48 hours exposure; for CC50: read-out: LC50 DU-145, SRB assay, 48 hours exposure; for TGI DU-145: SRB assay, 48 hours exposure
From the text: as §1, §2, §3, §4, §5

PANC-1 = assay: Inhibition of cells growth by colorimetric (SRB) assay, PANC-1; details: for GI50 / CC50: Homo sapiens, PANC-1, 48 h; for GI50: read-out: GI50 PANC-1, SRB assay, 48 hours exposure; for CC50: read-out: LC50 PANC-1, SRB assay, 48 hours exposure; for TGI PANC-1: SRB assay, 48 hours exposure
From the text: as §1, §2, §3, §4, §5

SK-OV-3 = assay: Inhibition of cells growth by colorimetric (SRB) assay, SK-OV-3; details: for GI50 / CC50: Homo sapiens, SK-OV-3, 48 h; for GI50: read-out: GI50 SKOV-3, SRB assay, 48 hours exposure; for CC50: read-out: LC50 SKOV-3, SRB assay, 48 hours exposure; for TGI SKOV-3: SRB assay, 48 hours exposure
From the text: as §1, §2, §3, §4, §5

IGROV-1 = assay: Inhibition of cells growth by colorimetric (SRB) assay, IGROV-1; details: for GI50 / CC50: Homo sapiens, IGROV-1, 48 h; for GI50: read-out: GI50 IGROV, SRB assay, 48 hours exposure; for CC50: read-out: LC50 IGROV, SRB assay, 48 hours exposure; for TGI IGROV: SRB assay, 48 hours exposure
From the text: as §1, §2, §3, §4, §5

IGROV-ET = assay: Inhibition of cells growth by colorimetric (SRB) assay, IGROV-ET; details: for GI50 / CC50: Homo sapiens, 48 h; for GI50: read-out: GI50 IGROV-ET, SRB assay, 48 hours exposure; for CC50: read-out: LC50 IGROV-ET, SRB assay, 48 hours exposure; for TGI IGROV-ET: SRB assay, 48 hours exposure
From the text: as §1, §2, §3, §4, §5

LNCaP = assay: Inhibition of cells growth by colorimetric (SRB) assay, LNCaP; details: for GI50 / CC50: Homo sapiens, LNCaP, 48 h; for GI50: read-out: GI50 LN-caP, SRB assay, 48 hours exposure; for CC50: read-out: LC50 LN-caP, SRB assay, 48 hours exposure; for TGI LN-caP: SRB assay, 48 hours exposure
From the text: as §1, §2, §3, §4, §5

LoVo = assay: Inhibition of cells growth by colorimetric (SRB) assay, LoVo; details: for GI50 / CC50: Homo sapiens, LoVo, 48 h; for GI50: read-out: GI50 LOVO, SRB assay, 48 hours exposure; for CC50: read-out: LC50 LOVO, SRB assay, 48 hours exposure; for TGI LOVO: SRB assay, 48 hours exposure
From the text: as §1, §2, §3, §4, §5

SK-MEL-28 = assay: Inhibition of cells growth by colorimetric (SRB) assay, SK-MEL-28; details: for GI50 / CC50: Homo sapiens, SK-MEL-28, 48 h; for GI50: read-out: GI50 MEL-28, SRB assay, 48 hours exposure; for CC50: read-out: LC50 MEL-28, SRB assay, 48 hours exposure; for TGI MEL-28: SRB assay, 48 hours exposure
From the text: as §1, §2, §3, §4, §5

K-562 = assay: Inhibition of cells growth by colorimetric (SRB) assay, K-562; details: for GI50 / CC50: Homo sapiens, K562, 48 h; for GI50: read-out: GI50 K-562, SRB assay, 48 hours exposure; for CC50: read-out: LC50 K-562, SRB assay, 48 hours exposure; for TGI K-562: SRB assay, 48 hours exposure
From the text: as §1, §2, §3, §4, §5

Row | Compound | GI50 (LoVo-Dox) [µM] | CC50 (LoVo-Dox) [µM] | TGI LOVO-DOX (LoVo-Dox) | GI50 (A-549) [µM] | CC50 (A-549) [µM] | TGI A-549 (A-549) | GI50 (HT-29) [µM] | CC50 (HT-29) [µM] | TGI HT-29 (HT-29) | GI50 (DU-145) [µM] | CC50 (DU-145) [µM] | TGI DU-145 (DU-145) | GI50 (PANC-1) [µM] | CC50 (PANC-1) [µM] | TGI PANC-1 (PANC-1) | GI50 (SK-OV-3) [µM] | CC50 (SK-OV-3) [µM] | TGI SKOV-3 (SK-OV-3) | GI50 (IGROV-1) [µM] | CC50 (IGROV-1) [µM] | also measured
1 | CSc1nccc2c(C(C)C)c3cccnc3n12 [Compound 61] | 13.7 | ≥ 38.9 | 3.89E−05 | 24.6 | ≥ 38.9 | 3.89E−05 | 28.9 | ≥ 38.9 | 3.89E−05 | 14.9 | ≥ 38.9 | 3.89E−05 | 11.5 | ≥ 38.9 | 3.83E−05 | 12.4 | ≥ 38.9 | 2.96E−05 | 15.7 | ≥ 38.9 | TGI IGROV (IGROV-1): 3.49E−05; GI50 (IGROV-ET): 7.34 µM; CC50 (IGROV-ET): ≥ 38.9 µM; TGI IGROV-ET (IGROV-ET): 2.27E−05; GI50 (LNCaP): 8.7 µM; CC50 (LNCaP): 37.1 µM; TGI LN-caP (LNCaP): 1.80E−05; GI50 (LoVo): 23 µM; CC50 (LoVo): ≥ 38.9 µM; TGI LOVO (LoVo): 3.89E−05; GI50 (SK-MEL-28): 20.2 µM; CC50 (SK-MEL-28): ≥ 38.9 µM; TGI MEL-28 (SK-MEL-28): 3.89E−05; GI50 (K-562): 9.79 µM; CC50 (K-562): ≥ 38.9 µM; TGI K-562 (K-562): 2.44E−05
2 | Nc1nccc2c(-c3cccc([N+](=O)[O-])c3)c3cccnc3n12 [Compound 64] | 22.7 | 32.8 | 3.28E−05 | 31.6 | 32.8 | 3.28E−05 | 32.8 | 32.8 | 3.28E−05 | 31 | 32.8 | 3.28E−05 | 20.9 | 32.8 | 3.28E−05 | 22.3 | 32.8 | 3.28E−05 | 14.4 | 32.8 | TGI IGROV (IGROV-1): 3.28E−05; GI50 (IGROV-ET): 18.9 µM; CC50 (IGROV-ET): 32.8 µM; TGI IGROV-ET (IGROV-ET): 3.28E−05; GI50 (LNCaP): 2.84 µM; CC50 (LNCaP): 19.9 µM; TGI LN-caP (LNCaP): 7.89E−06; GI50 (LoVo): 23.3 µM; CC50 (LoVo): 32.8 µM; TGI LOVO (LoVo): 3.28E−05; GI50 (SK-MEL-28): 21.7 µM; CC50 (SK-MEL-28): 32.8 µM; TGI MEL-28 (SK-MEL-28): 3.28E−05; GI50 (K-562): 9.24 µM; CC50 (K-562): 32.8 µM; TGI K-562 (K-562): 2.47E−05
3 | CC(C)c1c2cccnc2n2c(N)nccc12 [Compound 66] | 2.22 | ≥ 44.2 | 4.42E−05 | 16.1 | ≥ 44.2 | 4.42E−05 | 17.9 | ≥ 44.2 | 4.42E−05 | 10 | ≥ 44.2 | 2.59E−05 | 8 | ≥ 44.2 | 2.16E−05 | 15.7 | ≥ 44.2 | 3.04E−05 | 9.99 | 30.4 | TGI IGROV (IGROV-1): 1.74E−05; GI50 (IGROV-ET): 9.81 µM; CC50 (IGROV-ET): 39.8 µM; TGI IGROV-ET (IGROV-ET): 1.98E−05; GI50 (LNCaP): 12.5 µM; CC50 (LNCaP): ≥ 44.2 µM; TGI LN-caP (LNCaP): 2.55E−05; GI50 (LoVo): 17.1 µM; CC50 (LoVo): ≥ 44.2 µM; TGI LOVO (LoVo): 4.42E−05; GI50 (SK-MEL-28): 8.84 µM; CC50 (SK-MEL-28): 39.6 µM; TGI MEL-28 (SK-MEL-28): 1.87E−05; GI50 (K-562): 21.6 µM; CC50 (K-562): ≥ 44.2 µM; TGI K-562 (K-562): 4.42E−05
4 | Cl.Nc1nccc2c(-c3ccncn3)c3cccnc3n12 [Compound 71] | 0.465 | 33.5 | 1.79E−06 | 1.1 | 11.2 | 2.70E−06 | 1.1 | 33.5 | 3.35E−06 | 0.75 | 33.5 | 2.31E−06 | 1.07 | 33.5 | 3.78E−06 | 1.06 | 33.5 | 3.00E−06 | 0.797 | 4.15 | TGI IGROV (IGROV-1): 1.65E−06; GI50 (IGROV-ET): 1.04 µM; CC50 (IGROV-ET): 31.9 µM; TGI IGROV-ET (IGROV-ET): 2.75E−06; GI50 (LNCaP): 0.0502 µM; CC50 (LNCaP): 1.82 µM; TGI LN-caP (LNCaP): 2.15E−07; GI50 (LoVo): 0.318 µM; CC50 (LoVo): 33.5 µM; TGI LOVO (LoVo): 1.84E−06; GI50 (SK-MEL-28): 0.556 µM; CC50 (SK-MEL-28): 2.5 µM; TGI MEL-28 (SK-MEL-28): 1.18E−06; GI50 (K-562): 1.7 µM; CC50 (K-562): 33.5 µM; TGI K-562 (K-562): 1.30E−05
